Measurements as given in patent US8575116B1, “Polyacetylenic compounds for protecting against pancreatic islet atrophy” (Academia Sinica, priority 2010, dated 2013).
“Also recorded” adds a separate entry of the source.

Tests used:
db/db mice [1] = experiment: Long-term treatment of diabetic db/db mice: blood glucose and blood insulin; assay type: in vivo, mouse
Protocol: (§1) FIGS. 1A-F show the anti-diabetic effects of cytopiloyne in db/db mice during long-term treatment. (A) Chemical structure of cytopiloyne (2-β-D-glucopyranosyloxy-1-hydroxytrideca-5,7,9,11-tetrayne). (B) Four groups of 6-to-8-week-old diabetic db/db mice were tube-fed with vehicle, cytopiloyne (CP, 0.5 and 2.5 mgkg^−1 day^−1) or glimepiride (GLM, 2.5 mgkg^−1 day^−1) from 0 to 42 days post-treatment. Blood glucose (BG) levels in these mice were measured. (C) Blood insulin levels from the mice of FIG. 1B. (D) IPGTT was performed in the db/db mice of FIG. 1B on day 0, 28 and 42, and blood glucose levels were monitored for 3.5 h. […] Results from 3 independent experiments are expressed as mean±SEM, and P<0.05 was considered to be statistically significant (*). […]
After 0.5 h, the levels of postprandial blood sugar and insulin from the mice were monitored for additional 4 h. For continued administration, diabetic db/db males were grouped and tube-fed with vehicle, cytopiloyne (0.5 or 2.5 mgkg^−1 day^−1) or glimepiride (2.5 mg kg^−1 day^−1) for the indicated time, while levels of blood sugar, insulin, and glycosylated HbA1c, and glucose tolerance in these mice were determined. […] Unless indicated otherwise, the mice were fasted for 16 h, then Postprandial blood glucose and insulin in these mice were measured. […]

db/db mice [2] = experiment: Intraperitoneal glucose tolerance test (IPGTT) in db/db mice; assay type: in vivo, mouse; settings: 2.5 mgkg^−1 day^−1 for 6 weeks, day 42, db/db mice
Protocol: as §1, with “h. (E) The percentage of glycosylated HbAlc of whole blood from the mice of FIG. 1B on day 0 and 42. (F) Pancreata of 8- and 16-week-old db/db males, which had received the same treatment as FIG. 1B for 2 (images a-h) and 10 (images i-p) weeks, were stained with hematoxylin and eosin (H&E, images a, c, e, g, i, k, m and o) or hematoxylin and anti-insulin (H&I, images b, d, f, h, j, l, n and p).” for “h.”
Male db/db mice were administered either vehicle, cytopiloyne at 0.5 and 2.5 mgkg^−1 day^−1 or glimepiride at 2.5 mgkg^−1 day^−1 for the indicated time. […] The levels of blood sugar were monitored from −0.5 to 3 h after glucose administration.

db/db mice [3] = experiment: Prophylaxis of diabetes in diabetes-free db/db mice; assay type: in vivo, mouse; settings: 0.5 mgkg^−1 daily for 4 weeks, diabetes-free db/db mice aged 4 weeks
Protocol: FIGS. 2A-B show the prophylactic effect of cytopiloyne in db/db mice. […] Postprandial blood glucose levels in these mice were measured. (B) Blood insulin levels from the mice of […] were measured. Results from 3 independent experiments are expressed as mean±SEM, and P<0.05 was considered to be statistically significant (*).
After 0.5 h, the levels of postprandial blood sugar and insulin from the mice were monitored for additional 4 h. For continued administration, diabetic db/db males were grouped and tube-fed with vehicle, cytopiloyne (0.5 or 2.5 mgkg^−1 day^−1) or glimepiride (2.5 mg kg^−1 day^−1) for the indicated time, while levels of blood sugar, insulin, and glycosylated HbA1c, and glucose tolerance in these mice were determined. To evaluate the prophylaxis of diabetes, diabetes-free db/db mice at 4 weeks of age were tube-fed with vehicle or cytopiloyne (CP, 0.5 mgkg^−1), once a day, for 4 weeks. Unless indicated otherwise, the mice were fasted for 16 h, then Postprandial blood glucose and insulin in these mice were measured.

[4] = tested on: rat pancreatic islet cells; experiment: Insulin release from rat pancreatic islets (ELISA); assay type: cell-based
Protocol: FIGS. 3A-C show cytopiloyne-mediated insulin release depends on pancreatic islet cells. (A) Rat pancreatic islet cells were incubated with glucose-free KRB buffer containing vehicle or cytopiloyne at 1.5, 3, 7, 14, 28 and 42 μM (FIG. 3A-i). Similarly, rat pancreatic islet cells were incubated with KRB buffer containing vehicle, glimepiride (GLM, 10 μM) or cytopiloyne at 1.5, 3, 7, 14, 28 and 42 μM in the presence of 3.3 mM glucose (LG, FIG. 3A-ii) or 16.7 mM glucose (HG, FIG. 3A-iii). The insulin levels were determined using an insulin ELISA kit. The data presented as mean±SEM of 3 independent experiments. (B) Fed C57BL mice, which had already received an injection of STZ, were administered with an oral dose of vehicle, cytopiloyne (CP, 0.1, 0.5 and 2.5 mgkg^−1), and an intraperitoneal injection of insulin (Ins, 2.5 IUkg^−1). Blood sugar levels in the STZ-treated mice were determined using a glucometer. (C) C57BL mice, which had already received STZ, were orally administered with a single dose of vehicle, cytopiloyne (CP, 0.5 and 2.5 mgkg^−1), glimepiride (GLM, 2.5 mgkg^−1), or metformin (60 mgkg^−1), followed by an intraperitoneal injection with insulin (Ins). Blood sugar levels in the STZ-treated mice were determined using a glucometer. All the results from 3 independent experiments are expressed as mean±SEM, and P<0.05 was considered to be statistically significant (*). The number of mice (n) is indicated in parentheses.
Glucose levels in mouse blood samples were measured using an Elite® glucometer (Bayer, Pittsburgh, Pa., USA). Insulin levels in blood samples or islet cell supernatants were determined by ELISA assays (Mercodia, Uppsala, Sweden). The levels of glycosylated HbA1c in mouse blood samples were measured using DCA 2000 analyzer (Bayer, Pittsburgh, Pa., USA).
Pancreatic islets (10 isletsml^−1) from fasted male Wistar rats were incubated with KRB buffer containing vehicle (1 μl DMSO per ml KRB buffer), glimepiride or cytopiloyne in the absence or presence of glucose for 30 min. The KRB buffer was then collected for ELISA assays.

HIT-T15 cells = experiment: Insulin secretion of β-cell line with PMA, GF109203X and cytopiloyne (ELISA); assay type: cell-based, rat; settings: FIG. 6A; glucose 16.7 mM

Structure (SMILES): CC#CC#CC#CC#CCCC(CO)O[C@@H]1O[C@H](CO)[C@@H](O)[C@H](O)[C@H]1O (stereo partly drawn) [cytopiloyne, 2-β-D-glucopyranosyloxy-1-hydroxytrideca-5,7,9,11-tetrayne]
- blood insulin levels, long-term treatment (db/db mice [1]; 0.5 and 2.5 mgkg^−1 day^−1, db/db mice (FIG. 1C)): increased blood insulin levels to a greater extent than glimepiride
- blood sugar-lowering / anti-diabetic effect compared with glimepiride 2.5 mgkg^−1 (db/db mice [1]; 2.5 mgkg^−1 day^−1, long-term, fed db/db mice (FIG. 1B)): slightly therapeutically better than glimepiride at 2.5 mgkg^−1; also recorded: modestly better anti-diabetic effects at the same dose
- glucose tolerance (IPGTT) (db/db mice [2]): improved glucose tolerance in db/db mice to a greater extent than glimepiride
- blood sugar control in prophylactic treatment (db/db mice [3]): control blood sugar in these mice much better than the control
- prevention of T2D (db/db mice [3]): failed to prevent the disease
- insulin secretion from rat islets ([4]; 16.7 mM glucose KRB, also glucose-free and low glucose media): enhanced insulin secretion in high glucose medium
- insulin secretion in the absence of glucose ([4]; high dose, glucose-free KRB buffer): can still stimulate insulin secretion to some extent even in the absence of glucose
- insulin release in pancreatic islets, glucose dependence ([4]; low dose (e.g., 3 μM), 0, 3.3 and 16.7 mM glucose): simulates insulin release in pancreatic islets in a glucose-dependent manner
- insulin secretion in β-cell line (HIT-T15 cells): stimulated insulin secretion
